Measurements: patent US20210023113A1, “CONJUGATE OF CYTOTOXIC DRUG AND PRODRUG FORM OF SAID CONJUGATE” (priority 2018, published 2021)

Key:
[1] = Stability of R5 and S5 in aqueous buffer (PBS); type: physicochemical; conditions: phosphate buffered saline pH 6.0, any time point
Protocol: Measurement of the Stability of R5 and S5 in Aqueous Buffer at pH 7.4 • Sample solution R5-PBS was prepared by adding 20 μL of R5 (10 mM in DMSO) to 180 μL of phosphate buffered saline (pH 7.4). • Sample solution S5-PBS was prepared by adding 20 μL of S5 (10 mM in DMSO) to 180 μL of phosphate buffered saline (pH 7.4). • Samples were incubated at 25° C. and analyzed by LCMS (Method 3) with Selected ion recording set to 924 Da (corresponding to [R5+2H]^2+/2 and [S5+2H]^2+/2) and to 933 Da (the main impurity being formed corresponding to hydrolyzed products [R5+H2O+2H]^2+/2 and [S5+H2O+2H]^2+/2). Samples were injected at the following time points: 0 min, 99 min, 195 min, 291 min, 387 min, 543 min, 699 min, 855 min, 980 min. Peak areas of the samples injected at 0 min were considered as reference peak areas. • % Peak Area was calculated as (924 Da peak area)/((924 Da peak area)+(933 Da peak area))×100%.
The same experiment was carried out in phosphate buffered saline at pH 6.0.

[2] = target: T1, β-glucuronidase from Escherichia coli (Escherichia coli, UniProt P05804); assay: Kinetics of β-glucuronidase-induced release of MMAE in human plasma; type: biochemical; conditions: after 7 minutes of incubation with β-glucuronidase, 37° C.
T1 sequence (P05804 whole entry): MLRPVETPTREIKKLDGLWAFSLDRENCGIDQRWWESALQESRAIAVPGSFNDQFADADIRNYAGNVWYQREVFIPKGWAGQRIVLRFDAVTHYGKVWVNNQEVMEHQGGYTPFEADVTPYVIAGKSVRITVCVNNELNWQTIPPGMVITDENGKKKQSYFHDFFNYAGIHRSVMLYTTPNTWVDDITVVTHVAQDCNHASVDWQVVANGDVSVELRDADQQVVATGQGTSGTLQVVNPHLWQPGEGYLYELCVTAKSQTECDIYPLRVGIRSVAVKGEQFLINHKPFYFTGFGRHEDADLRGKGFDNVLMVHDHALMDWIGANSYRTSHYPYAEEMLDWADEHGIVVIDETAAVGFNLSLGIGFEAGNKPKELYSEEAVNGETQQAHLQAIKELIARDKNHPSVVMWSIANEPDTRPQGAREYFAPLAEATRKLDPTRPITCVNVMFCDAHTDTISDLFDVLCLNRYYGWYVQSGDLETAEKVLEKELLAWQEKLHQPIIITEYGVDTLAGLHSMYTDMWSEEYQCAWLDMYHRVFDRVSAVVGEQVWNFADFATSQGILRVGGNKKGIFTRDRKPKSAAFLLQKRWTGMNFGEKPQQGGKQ
Protocol: Measurement of the Kinetics of β-glucuronidase-Induced Release of MMAE • Sample solution of R isomer was prepared by adding 10 μL of R5 (10 mM in DMSO) to 990 μL of human plasma and incubating at 37° C. for 20 min. • Sample solution of S isomer was prepared by adding 10 μL of S5 (10 mM in DMSO) to 990 μL of human plasma and incubating at 37° C. for 20 min. • Quenching solution (Q) was prepared by adding 50 μL of 1 M aqueous HCl to 1.5 mL of acetonitrile. • β-glucuronidase solution (Glu) was prepared by adding 20 μL of aqueous glycerol solution of β-glucuronidase from Escherichia coli (6.5 mg/mL) to 180 μL of H2O. • Reference solution (Ref) was prepared by adding 10 μL of MMAE (10 mM in DMSO) to 990 μL of human plasma and incubating at 37° C. for 20 min.
To 1 mL of each isomer and reference solution was added 40.9 uL of Glu. The resulting mixtures were incubated at 37° C. 45 μL aliquots of each solution were quenched with 155 μL of Q at the following time points: 1 min, 2 min, 3 min, 4 min, 5 min, 6 min and 7 min. Quenched aliquots were centrifuged at 15000 g for 5 min and the supernatant was analyzed by LCMS (Method 3) with Selected ion recording set to 719 Da (corresponding to [MMAE+H]^+). The amount of released MMAE at each time point was calculated as (sample peak area)/(reference peak area)×100% (FIG. 2).

serum albumin = target: T2, serum albumin (Homo sapiens, UniProt P02768); assay: Plasma-binding kinetics of R5 and S5; type: in vitro ADME; conditions: 37° C.
T2 construct: adding 10 μL of R5 (10 mM in DMSO) to 990 μL of human plasma and incubating at 37° C; from tissue; host or cells: human plasma
T2 sequence (P02768 25-609): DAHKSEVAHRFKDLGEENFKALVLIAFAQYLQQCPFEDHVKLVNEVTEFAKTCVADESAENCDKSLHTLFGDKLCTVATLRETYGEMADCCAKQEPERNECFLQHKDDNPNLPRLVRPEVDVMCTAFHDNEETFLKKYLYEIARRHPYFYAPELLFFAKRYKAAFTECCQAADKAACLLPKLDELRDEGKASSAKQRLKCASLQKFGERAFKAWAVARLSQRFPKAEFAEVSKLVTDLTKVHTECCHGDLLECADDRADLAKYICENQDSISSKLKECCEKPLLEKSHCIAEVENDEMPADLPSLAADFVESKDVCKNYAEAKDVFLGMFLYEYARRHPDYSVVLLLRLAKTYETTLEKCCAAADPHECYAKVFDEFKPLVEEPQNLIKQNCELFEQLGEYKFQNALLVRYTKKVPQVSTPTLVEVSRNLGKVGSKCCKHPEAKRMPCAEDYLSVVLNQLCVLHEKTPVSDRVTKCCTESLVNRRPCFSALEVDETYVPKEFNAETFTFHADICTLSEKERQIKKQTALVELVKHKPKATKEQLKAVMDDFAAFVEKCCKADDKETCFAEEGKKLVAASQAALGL
Protocol: Plasma-Binding Kinetics of R5 and S5 • Quenching solution (Q) was prepared by adding 50 μL of 1 M aqueous HCl to 1.5 mL of acetonitrile. • Sample solution R-Alb was prepared by adding 10 μL of R5 (10 mM in DMSO) to 990 μL of human plasma and incubating at 37° C. • Sample solution S-Alb was prepared by adding 10 μL of S5 (10 mM in DMSO) to 990 μL of human plasma and incubating at 37° C. • 45 μL aliquots of each sample solution were added to 155 μL of the quenching solution at the following time-points: 0 min, 1 min, 2 min, 3 min, 4 min, 5 min, 6 min, 7 min. • Quenched aliquots were centrifuged at 15000 g for 5 min and the supernatant was analyzed by LCMS (Method 3) with Selected ion recording set to 924 Da (corresponding to [R5+2H]^2+/2 and [S5+2H]^2+/2). Peak areas of the aliquots quenched at 0 min were considered as reference peak areas. • The % remaining free drug at each time point was calculated as (sample peak area)/(reference peak area)×100%.

[3] = target: T1, β-glucuronidase from Escherichia coli; assay: Kinetics of β-glucuronidase-induced release of a cytotoxic drug (general procedure, plasma/phosphate buffer); type: biochemical; conditions: after 40 minutes of incubation with β-glucuronidase, 50/50 human plasma and potassium phosphate buffer pH 7.0, 25° C.
Protocol: General Procedure for the Measurement of the Kinetics of β-glucuronidase-Induced Release of a Cytotoxic Drug • Sample solution of R isomers was prepared by adding 5 μL of compounds R6, R7 or R8 (10 mM in DMSO) to 500 μL of a 50/50 mixture of human plasma and potassium phosphate buffer (0.1M, pH 7.0) and incubating at 37° C. for 20 min. • Sample solution of S isomers was prepared by adding 5 μL of compounds S6, S7 or S8 (10 mM in DMSO) to 500 μL of a 50/50 mixture of human plasma and potassium phosphate buffer (0.1M, pH 7.0) and incubating at 37° C. for 20 min. • Quenching solution (Q) was prepared by adding 50 μL of 1 M aqueous HCl to 1.5 mL of acetonitrile. • β-glucuronidase solution (Glu) was prepared by adding 20 μL of aqueous glycerol solution of β-glucuronidase from Escherichia coli (6.5 mg/mL) to 180 μL of H2O. • Reference solution (Ref) was prepared by adding 5 μL of a corresponding free cytotoxic drug (10 mM in DMSO) to 500 μL of a 50/50 mixture of human plasma and potassium phosphate buffer (0.1M, pH 7.0) and incubating at 37° C. for 20 min.
To each sample and reference solution was added 10 uL of Glu. The resulting mixtures were incubated at 25° C. 45 μL aliquots of each solution were quenched with 155 μL of Q at the precise time points indicated on the graphs (FIGS. 3-5). Quenched aliquots were centrifuged at 15000 g for 5 min and the supernatant was analyzed by LCMS (Method 3) with Selected ion recording set to [M+H]^+ where M corresponds to molecular mass of the free cytotoxic agent.
The amount of released cytotoxic agent at each time point was calculated as (sample peak area)/(reference peak area)×100%.

Question: With `CC[C@H](C)[C@@H]([C@@H](CC(=O)N1CCC[C@H]1[C@H](OC)[C@@H](C)C(=O)N[C@H](C)[C@@H](O)c1ccccc1)OC)N(C)C(=O)[C@@H](NC(=O)[C@H](C(C)C)N(C)C(=O)O[C@@H](Cc1cn(CCOCCOCCOCCOCCOCCOCCOCCOCCOCCOCCNC(=O)CCCCCN2C(=O)C=CC2=O)nn1)c1ccc(O[C@@H]2O[C@H](C(=O)O)[C@@H](O)[C@H](O)[C@H]2O)c([N+](=O)[O-])c1)C(C)C` [S5] as the compound, how does the degradation of compound [1] read?
Answer: No degradation

Question: And the “MMAE released from plasma-bound compound” value [2]?
Answer: 12%

Question: And the “compound bound to serum albumin” value (serum albumin; after 2 minutes of incubation)?
Answer: about 90%

Question: And the “conversion (binding to serum albumin)” value (serum albumin; after 4 minutes)?
Answer: total conversion

Question: With `CC[C@H](C)[C@@H]([C@@H](CC(=O)N1CCC[C@H]1[C@H](OC)[C@@H](C)C(=O)N[C@@H](Cc1ccccc1)C(=O)O)OC)N(C)C(=O)[C@@H](NC(=O)[C@H](C(C)C)N(C)C(=O)O[C@@H](Cc1cn(CCOCCOCCOCCOCCOCCOCCOCCOCCOCCOCCNC(=O)CCCCCN2C(=O)C=CC2=O)nn1)c1ccc(O[C@@H]2O[C@H](C(=O)O)[C@@H](O)[C@H](O)[C@H]2O)c([N+](=O)[O-])c1)C(C)C` [S6] as the compound, how does the “MMAF released from plasma-bound compound” value [3] read?
Answer: 57%

Question: Which “SN-38 released from plasma-bound compound” value [3] does the source give for `CCc1c2c(nc3ccc(OCc4ccc(NC(=O)O[C@@H](Cc5cn(CCOCCOCCOCCOCCOCCOCCOCCOCCOCCOCCNC(=O)CCCCCN6C(=O)C=CC6=O)nn5)c5ccc(O[C@H]6O[C@@H](C(=O)O)[C@H](O)[C@@H](O)[C@@H]6O)c([N+](=O)[O-])c5)cc4)cc13)-c1cc3c(c(=O)n1C2)COC(=O)[C@]3(O)CC` [S7] here?
Answer: 18%

Question: For `COc1cccc2c1C(=O)c1c(O)c3c(c(O)c1C2=O)C[C@@](O)(C(=O)CO)C[C@@H]3O[C@H]1C[C@H](NC(=O)O[C@@H](Cc2cn(CCOCCOCCOCCOCCOCCOCCOCCOCCOCCOCCNC(=O)CCCCCN3C(=O)C=CC3=O)nn2)c2ccc(O[C@H]3O[C@@H](C(=O)O)[C@H](O)[C@@H](O)[C@@H]3O)c([N+](=O)[O-])c2)[C@H](O)[C@H](C)O1` [S8], which “Doxorubicin released from plasma-bound compound” value [3] is on record?
Answer: 80%
